Laboratory results: PubChem BioAssay AID1919017 (Molecular Pharmacology Branch, DTP, NCI, 2023)
Where “and” joins values, the source holds several entries; their conditions need not be identical. Equal entries are not always repeated.

Test system: SW1271 complex spheroids with HUVEC/MSC, growth, % test/control
Experiment: Anticancer human tumor SW1271 cell line growth inhibition [AhR];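 also: spheroids exposed to agents for 7 days before readout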
Details: for viability, T/C: stronger effect = lower value
How it was run: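 Agents were dosed in half-log steps down from roughly clinical Cmax, or from 10 microM where Cmax was unknown, alone and with AhR antagonists. Read-out: percent test/control growth of tumor spheroids containing HUVEC and MSC stromal cells.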

[1] = curve of first compound, second compound 0.1 µM
[2] = curve of first compound, second compound 0.316 µM
[3] = curve of first compound, second compound 1 µM
[4] = curve of first compound, second compound 3.16 µM
[5] = curve of first compound, second compound 10 µM
[6] = second compound 0.1 µM, first compound 0.0316 µM
[7] = second compound 0.1 µM, first compound 0.1 µM
[8] = second compound 0.1 µM, first compound 0.316 µM
[9] = second compound 0.1 µM, first compound 1 µM
[10] = second compound 0.1 µM, first compound 3.16 µM
[11] = second compound 0.1 µM, first compound 10 µM
[12] = second compound 0.316 µM, first compound 0.0316 µM
[13] = second compound 0.316 µM, first compound 0.1 µM
[14] = second compound 0.316 µM, first compound 0.316 µM
[15] = second compound 0.316 µM, first compound 1 µM
[16] = second compound 0.316 µM, first compound 3.16 µM
[17] = second compound 0.316 µM, first compound 10 µM
[18] = second compound 1 µM, first compound 0.0316 µM
[19] = second compound 1 µM, first compound 0.1 µM
[20] = second compound 1 µM, first compound 0.316 µM
[21] = second compound 1 µM, first compound 1 µM
[22] = second compound 1 µM, first compound 3.16 µM
[23] = second compound 1 µM, first compound 10 µM
[24] = second compound 3.16 µM, first compound 0.0316 µM
[25] = second compound 3.16 µM, first compound 0.1 µM
[26] = second compound 3.16 µM, first compound 0.316 µM
[27] = second compound 3.16 µM, first compound 1 µM
[28] = second compound 3.16 µM, first compound 3.16 µM
[29] = second compound 3.16 µM, first compound 10 µM
[30] = second compound 10 µM, first compound 0.0316 µM
[31] = second compound 10 µM, first compound 0.1 µM
[32] = second compound 10 µM, first compound 0.316 µM
[33] = second compound 10 µM, first compound 1 µM
[34] = second compound 10 µM, first compound 3.16 µM
[35] = second compound 10 µM, first compound 10 µM

SMILES	IC50 [1]	IC50 [2]	IC50 [3]	IC50 [4]	IC50 [5]	viability, T/C [6]	viability, T/C [7]	viability, T/C [8]	viability, T/C [9]	viability, T/C [10]	viability, T/C [11]	viability, T/C [12]	viability, T/C [13]	viability, T/C [14]	viability, T/C [15]	viability, T/C [16]	viability, T/C [17]	viability, T/C [18]	viability, T/C [19]	viability, T/C [20]	other results
COc1cccc2c1C(=O)c1c(O)c3c(c(O)c1C2=O)CC(O)(C(=O)CO)CC3OC1CC(N)C(O)C(C)O1 (configuration not stated) + CC(CO)NC(=O)c1cc(-c2ccc(Cl)cc2)nn(-c2cnn(C)c2)c1=O	0.348 µM	0.136 µM	0.151 µM	0.337 µM	0.165 µM	62.5%	67.7%	54%	5.59%	1.72%	3.58%	49.2%	61.1%	35.6%	4%	1.69%	2.61%	72%	52.9%	39.2%	viability, T/C [21]: 3.81%; viability, T/C [22]: 1.11%; viability, T/C [23]: 2.5%; viability, T/C [24]: 68.6%; viability, T/C [25]: 54%; viability, T/C [26]: 52.8%; viability, T/C [27]: 1.66%; viability, T/C [28]: 2.16%; viability, T/C [29]: 2.9%; viability, T/C [30]: 58.7%; viability, T/C [31]: 61.3%; viability, T/C [32]: 37%; viability, T/C [33]: 0.78%; viability, T/C [34]: 1.79%; viability, T/C [35]: 3.41%
CCN(c1cc(-c2ccc(CN3CCOCC3)cc2)cc(C(=O)NCc2c(C)cc(C)[nH]c2=O)c1C)C1CCOCC1																					viability, T/C (compound 0.00949 µM): 104% and 90.3% and 94.7%; viability, T/C (compound 0.03 µM): 96.7% and 99.1% and 104%; viability, T/C (compound 0.0949 µM): 86.3% and 110% and 120%; viability, T/C (compound 0.3 µM): 93.2% and 124% and 111%; viability, T/C (compound 0.949 µM): 90.6% and 106% and 125%; viability, T/C (compound 3 µM): 102% and 115% and 107%; IC50 (curve of compound): > 3 µM
COc1ccc([C@@H](O)c2cc(-c3ncnc4cc(N5CCOCC5)ccc34)c(F)cc2Cl)nn1 + CC(CO)NC(=O)c1cc(-c2ccc(Cl)cc2)nn(-c2cnn(C)c2)c1=O	2.69 µM	1.9 µM	1.41 µM	1.48 µM	0.931 µM	83.9%	96.4%	90.9%	66.5%	49.6%	28%	101%	91.4%	77.3%	58.6%	43.1%	33.2%	103%	108%	78.6%	viability, T/C [21]: 55.8%; viability, T/C [22]: 40.6%; viability, T/C [23]: 29.6%; viability, T/C [24]: 92.2%; viability, T/C [25]: 80.4%; viability, T/C [26]: 68.3%; viability, T/C [27]: 56.3%; viability, T/C [28]: 39.2%; viability, T/C [29]: 36.5%; viability, T/C [30]: 84%; viability, T/C [31]: 76.9%; viability, T/C [32]: 59.8%; viability, T/C [33]: 50.3%; viability, T/C [34]: 38%; viability, T/C [35]: 29.1%
Nc1ccccc1NC(=O)c1ccc(CNC(=O)OCc2cccnc2)cc1 + Cc1ccccc1N=Nc1ccc(NC(=O)c2ccnn2C)c(C)c1	1.86 µM	2.77 µM	2.11 µM	1.74 µM	1.46 µM	76.7%	135%	91%	62.1%	41.5%	13.6%	90.2%	103%	93.8%	86%	45.3%	18%	101%	100%	90.7%	viability, T/C [21]: 63.1%; viability, T/C [22]: 43.7%; viability, T/C [23]: 19.9%; viability, T/C [24]: 119%; viability, T/C [25]: 120%; viability, T/C [26]: 90.2%; viability, T/C [27]: 64.3%; viability, T/C [28]: 36.5%; viability, T/C [29]: 23.7%; viability, T/C [30]: 89%; viability, T/C [31]: 94%; viability, T/C [32]: 86.6%; viability, T/C [33]: 52.6%; viability, T/C [34]: 41.2%; viability, T/C [35]: 22.8%
CC1(C)CCC(CN2CCN(c3ccc(C(=O)NS(=O)(=O)c4ccc(NCC5CCOCC5)c([N+](=O)[O-])c4)c(Oc4cnc5[nH]ccc5c4)c3)CC2)=C(c2ccc(Cl)cc2)C1 + Cc1ccccc1N=Nc1ccc(NC(=O)c2ccnn2C)c(C)c1	> 10 µM	> 10 µM	> 10 µM	> 10 µM	> 10 µM	96.4%	99.5%	100%	79.4%	88.2%	94.1%	110%	78.6%	102%	99.3%	85.4%	90%	110%	88%	113%	viability, T/C [21]: 92.9%; viability, T/C [22]: 95.1%; viability, T/C [23]: 128%; viability, T/C [24]: 91.9%; viability, T/C [25]: 105%; viability, T/C [26]: 87.5%; viability, T/C [27]: 76.1%; viability, T/C [28]: 78.3%; viability, T/C [29]: 112%; viability, T/C [30]: 102%; viability, T/C [31]: 99.3%; viability, T/C [32]: 98.4%; viability, T/C [33]: 86%; viability, T/C [34]: 83%; viability, T/C [35]: 93.3%
